According to patent publication US7955808B2, “Bitter taste receptors” (Deutsches Institut für Ernährungsorschung, Stiftung des …, priority 2002, dated 2011):
Read-outs that look alike come from different tables or passages of the source.

Columns and labels:
[1] = target: T1, hTAS2R38 (Homo sapiens, UniProt P59533); assay: FLIPR assay, heterologous expression of hTAS2R38; assay type: cell-based
T1 construct: gene-specific primers that span the complete coding region ... contains the first 45 amino acids of the rat somatostatin type 3 receptor
T1 sequence (P59533 1-333 A49P/I296V): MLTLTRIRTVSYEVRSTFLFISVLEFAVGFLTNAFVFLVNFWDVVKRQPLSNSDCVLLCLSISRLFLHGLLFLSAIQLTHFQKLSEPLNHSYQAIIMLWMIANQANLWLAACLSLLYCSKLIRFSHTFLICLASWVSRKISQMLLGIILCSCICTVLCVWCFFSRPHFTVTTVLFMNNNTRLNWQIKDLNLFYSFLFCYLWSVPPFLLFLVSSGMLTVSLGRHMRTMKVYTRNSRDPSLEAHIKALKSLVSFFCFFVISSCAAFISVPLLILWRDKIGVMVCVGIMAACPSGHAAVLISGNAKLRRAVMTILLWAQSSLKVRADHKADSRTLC
From the text: These cells stably express a chimeric G protein constructed from human Gα16 and rat gustducin. Finally, we seeded the transfected cells at a density of 3×10^3 cells per well into 96-well black-wall, clear-bottom microtiter plates (Greiner).
Co-transfection of TAS2Rs with gustducin and phospholipase-Cβ2 into HEK-293 cells. Alternatively, we transfected simultaneously plasmid DNAs encoding one of the TAS2Rs, phospholipase-Cβ2 and α-gustducin into HEK-293 cells using the lipofectamine method. Additional cotransfection of G-protein β and γ-subunits may improve the bitter tastant-induced responses. Thereafter, the transfected cells were seeded at a density of 3×10^3 cells per well into 96-well black-wall, clear-bottom microtiter plates (Greiner).
Thereafter, cells were gently washed in HBS by an automated plate washer (Denley Cellwash, Labsystenms) and transferred to the FLIPR (Molecular Devices). The FLIPR integrates an argon laser excitation source, a 96-well pipettor, and a detection system utilizing a Charged Coupled Device imaging camera. […] Fluorescence data were collected 1 min before and 10 min after stimulation. Data were collected every 6 s before and every 1 s after agonist stimulation. 50 μl of 3× concentrated agonists were delivered within 2 by the integrated 96-well pipettor to the wells containing 100 μl HBS. Agonist responses were quantified using the amplitudes of the fluorescence peaks. We averaged the responses of five wells containing cells expressing the same receptor and that received the same stimulus. Calcium traces were determined in triplicate of mock-transfected cells stimulated with the same concentration of tastant.

[2] = target: T2, hTAS2R16 (Homo sapiens, UniProt Q9NYV7, R222H); assay: FLIPR assay, heterologous expression of hTAS2R16; assay type: cell-based
T2 construct: gene-specific primers that span the complete coding region of the individual hTAS2R genes; first 45 amino acids of rat somatostatin type 3 receptor (cell surface-targeting signal) (N); expressed in transfected cells; host or cells: HEK293/15 cells (HEK293 stably expressing Galpha15), transient transfection
T2 sequence (Q9NYV7 1-291 R222H): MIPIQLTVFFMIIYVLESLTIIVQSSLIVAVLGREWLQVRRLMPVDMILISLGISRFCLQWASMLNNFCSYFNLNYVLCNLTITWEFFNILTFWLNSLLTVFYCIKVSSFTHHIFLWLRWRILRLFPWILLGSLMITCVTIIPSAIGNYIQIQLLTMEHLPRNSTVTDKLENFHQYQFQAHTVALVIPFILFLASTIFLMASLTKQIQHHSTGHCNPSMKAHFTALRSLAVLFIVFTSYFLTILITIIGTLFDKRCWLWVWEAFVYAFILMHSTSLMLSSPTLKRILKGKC
From the text: (§1) Transient transfection of TAS2Rs into HEK-293T-Gα16gustducin44 cells.

[3] = target: T3, hTAS2R10 (Homo sapiens, UniProt Q9NYW0, T156M); assay: FLIPR assay, heterologous expression of hTAS2R10; assay type: cell-based
T3 construct: gene-specific primers that span the complete coding region of the individual hTAS2R genes; first 45 amino acids of rat somatostatin type 3 receptor (cell surface-targeting signal) (N); expressed in transfected cells; host or cells: HEK-293T-Gα16gustducin44 cells (alternatively HEK-293 co-transfected with phospholipase-Cβ2 and α-gustducin)
T3 sequence (Q9NYW0 1-307 T156M): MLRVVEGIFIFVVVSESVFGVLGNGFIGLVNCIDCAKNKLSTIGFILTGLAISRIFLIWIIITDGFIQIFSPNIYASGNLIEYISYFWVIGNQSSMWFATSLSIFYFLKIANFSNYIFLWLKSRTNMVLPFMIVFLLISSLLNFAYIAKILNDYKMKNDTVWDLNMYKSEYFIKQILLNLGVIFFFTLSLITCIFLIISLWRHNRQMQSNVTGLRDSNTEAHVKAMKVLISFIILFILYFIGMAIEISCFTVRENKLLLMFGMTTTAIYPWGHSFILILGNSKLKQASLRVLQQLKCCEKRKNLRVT
From the text: as §1

[4] = target: T2, hTAS2R16; assay: FLIPR calcium assay, hTAS2R16-expressing HEK293/15 transfectants; assay type: cell-based
Procedure: A fluorescence imaging plate reader (FLIPR, Molecular Devices) was used to functionally screen cell populations transiently transfected with expression vectors encoding the above-described 24 bitter receptors and to establish concentration-response curves for hTAS2R16 and hTASR10. […] For the FLIPR experiments the HEK293/15 cells were grown to 50% confluence. […] After 48 h the cells in each well were transfected using Lipofectamine 2000 and 24-30 h later were loaded with FIuo4AM (Molecular Probes). Thereafter they were stimulated with bitter compounds (SigmaAldrich, further purified by reversed-phase HPLC to >99% purity). Calcium signals were recorded simultaneously from each well at 1 Hz at 510 nm after excitation at 488 nm and the recordings were corrected for cell density. […] The calculations rest on at least four independent transfection experiments.
EC50 and threshold values obtained with hTAS2R16-expressing transfectants are shown in Table 1 below and the results are described in Example 4.

[5] = tested on: human panelists; assay: Human taste experiments: bitter thresholds and dose-response by sensory panel; assay type: in vivo; settings: for Threshold Value Human: bitter threshold, triangle test, tap water; for EC50: bitterness intensity dose-response
Procedure: 15 experienced panelists in a sensory panel room at 22-25° C. determined bitter thresholds on three different sessions using a triangle test with tap water as solvent, according to methodology set out in J. Agric. Food Chem., 49, 231-238 (2001), or Mailgaard M et al, “Sensory Evaluation Techniques” (CRC Press LLC, New York 1999). For dose-response relations, bitter tastant concentration series were presented to 10 trained panelists in random order. The panelists ranked the samples in increasing order of intensity and, for each concentration, evaluated bitterness intensity on a scale from 0 to 5 (ref. 24). The dose-response curves of three different sessions were averaged. The intensity values between individuals and separate sessions differed by not more than 0.5 units.

[6] = tested on: human panelists; assay: Human taste adaptation experiment; assay type: in vivo; settings: for initial bitterness score by test panel: 8 mM, 15 s; for own bitterness during prolonged stimulation (adaptation): 120 s or 180 s in the mouth
Procedure: To investigate adaptation, the 8 panelists first maintained aqueous solutions (5 ml) of phenyl-β-D-glucopyranoside (8 mM), phenyl-alpha-D-glucopyranoside (180 mM), salicin (8 mM), or helicin (8 mM) for 15 s in their oral cavities and evaluated the bitter intensity as described above. After 30 min, they kept a denatonium benzoate solution (5 ml, 0.0003 mM) for 15 s in their mouth and evaluated its bitterness. The panelists spat off the denatonium benzoate solution, took up the phenyl-β-D-glucopyranoside or the phenyl-alpha-D-glucopyranoside solutions orally for 120 s or 180 s and judged their bitterness intensity after 15, 30, 60, 120 and 180s. Thereafter, the panelists spat off these solutions and then sequentially took up salicin, helicin (5 ml, 8 mM) and denatonium benzoate (5 ml, 0.0003 mM) and evaluated bitterness intensities of these solutions after 15 s. After an additional 30 min, the first experiment was repeated. The data of three different sessions for each panelist were averaged. Intensity values between individuals and separate sessions differed by not more than ±0.5 units.

| Approx. Threshold [1] [µM] | EC50 ([1]; read-out: EC50) [µM] | Molecule | receptor activation (in words) [1] | Threshold ([2]; hTAS2R16) | Threshold Value Human [5] [mM] | also measured |
| --- | --- | --- | --- | --- | --- | --- |
| – | – | O=c1cc(O)[nH]c(=S)[nH]1 [2-Thiobarbituric acid] | activated | – | – | reacts at [1]: reacts at 10 mM |
| 20 | 180 | Cc1cc(=O)[nH]c(=S)[nH]1 [4(6)-Methyl-2-thiouracil] | activated | – | – | – |
| – | – | O=[N+]([O-])c1ccc(O[C@@H]2O[C@H](CO)[C@@H](O)[C@H](O)[C@H]2O)cc1 [4-Nitrophenyl-β-D-Glucoside] | – | 1 − 3 mM | – | – |
| – | – | O=[N+]([O-])c1ccc(O[C@@H]2O[C@H](CO)[C@@H](O)[C@H](O)[C@@H]2O)cc1 [4-Nitrophenyl-β-D-Mannoside] | – | 1 − 3 mM | – | – |
| – | – | O=[N+]([O-])c1ccc(S[C@@H]2O[C@H](CO)[C@@H](O)[C@H](O)[C@H]2O)cc1 [4-Nitrophenyl-β-D-Thioglucoside] | – | 1 − 5 mM | – | – |
| 2 | 15 | CC(=O)NC(N)=S [Acetylthiourea] | activated | – | – | – |
| – | – | COc1cc2c(cc1OC)[C@@]13CCN4CC5=CCO[C@H]6CC(=O)N2[C@H]1[C@H]6[C@H]5C[C@H]43 [Brucine] | – | – | – | EC50 [3]: 60 µM; Approx. Threshold ([3]; hTAS2R10): 0.01 mM; receptor activation (in words) ([3]; hTAS2R10): activated |
| – | – | OC[C@H]1O[C@@H](Oc2ccccc2)[C@H](O)[C@@H](O)[C@@H]1O [Compound 1, phenyl-beta-D-glucopyranoside] | – | 0.07 ± 0.02 mM | 0.1 ± 0.05 | EC50 [4]: 1100 µM; Threshold Value FLIPR [4]: 0.07 ± 0.02 mM; EC50 [5]: 700 µM; initial bitterness score by test panel [6]: equally intensely bitter; own bitterness during prolonged stimulation (adaptation) [6]: declined; EC50 ([2]; hTAS2R16, read-out: EC50): 1100 ± 100 µM |
| 300 | ~2000 | O=c1cc[nH]c(=S)[nH]1 [Compound 2-Thiouracil, 2-Thiouracil] | activated | – | – | – |
| – | – | O=Cc1ccccc1O[C@@H]1O[C@H](CO)[C@@H](O)[C@H](O)[C@H]1O [Compound 3, helicin] | – | 0.3 ± 0.1 mM | 0.4 ± 0.1 | EC50 [4]: 2300 µM; Threshold Value FLIPR [4]: 0.3 ± 0.1 mM; EC50 [5]: 2200 µM; initial bitterness score by test panel [6]: equally intensely bitter; bitterness after prolonged stimulation with phenyl-beta-D-glucopyranoside (cross-adaptation) ([6]; in vivo): less bitter; EC50 ([2]; hTAS2R16, read-out: EC50): 2300 ± 400 µM |
| – | – | OC[C@H]1O[C@@H](Oc2ccc(O)cc2)[C@H](O)[C@@H](O)[C@@H]1O [Compound 4, arbutin] | – | 0.5 ± 0.2 mM | 0.9 ± 0.3 | EC50 [4]: 5800 µM; Threshold Value FLIPR [4]: 0.5 ± 0.2 mM; EC50 [5]: 5400 µM; EC50 ([2]; hTAS2R16, read-out: EC50): 5800 ± 900 µM |
| – | – | O=[N+]([O-])c1ccccc1O[C@@H]1O[C@H](CO)[C@@H](O)[C@H](O)[C@H]1O [Compound 5, 2-nitro-phenyl-beta-D-glucopyranoside] | – | 0.3 − 1 mM | – | Threshold Value FLIPR [4]: 1.5 ± 0.5 mM |
| – | – | OC[C@H]1O[C@@H](Oc2ccc3ccccc3c2)[C@H](O)[C@@H](O)[C@@H]1O [Compound 6, naphthyl-beta-D-pyranoside] | – | – | 0.2 ± 0.1 | EC50 [4]: 1000 µM; EC50 ([5]; Homo sapiens): 1400 µM; EC50 ([2]; hTAS2R16, read-out: EC50): 1000 ± 100 µM |
| – | – | COC1OC(CO)C(O)C(O)C1O [Compound 7, methyl-beta-D-lucopyranoside] | – | – | 32 ± 11 | – |
| – | – | N#CC(O[C@@H]1O[C@H](CO[C@@H]2O[C@H](CO)[C@@H](O)[C@H](O)[C@H]2O)[C@@H](O)[C@H](O)[C@H]1O)c1ccccc1 (stereo partly shown) [Compound 8, amygdalin] | – | – | – | EC50 [4]: 20000 µM; EC50 [2]: 20000 ± 3400 µM |
| – | – | O=c1ccc2cc(O[C@@H]3O[C@H](CO)[C@@H](O)[C@H](O)[C@H]3O)c(O)cc2o1 [Compound 9, esculin] | – | 4 ± 2 mM | 4 ± 1 | Threshold Value FLIPR [4]: 4 ± 2 mM |
| – | – | OC[C@H]1O[C@@H](Oc2ccccc2)[C@H](O)[C@@H](O)[C@H]1O [Compound 10, phenyl-beta-D-galactopyranoside] | – | – | 40 ± 13 | EC50 [4]: > 100000 µM; Threshold Value FLIPR [4]: n.r. (No response up to 100 mM) |
| – | – | OCC1OC(Oc2ccccc2)C(O)C(O)C1O [Compound 11, phenyl-alpha-D-glucopyranoside] | – | – | 9 ± 3 | EC50 [4]: > 100000 µM; Threshold Value FLIPR [4]: n.r. (No response up to 100 mM); EC50 ([5]; Homo sapiens): 50000 µM; own bitterness during prolonged stimulation (adaptation) [6]: desensitized strongly; cross-adaptation with all tested beta-D-glucopyranosides ([6]; in vivo): failed to cross-adapt |
| 30 | 260 | CCNC(N)=S [N-Ethylthiourea] | activated | – | – | – |
| 10 to 30 | 100 | CN(C)C(=S)N(C)C [Tetramethylthiourea] | activated | – | – | – |
| 3 | 18 | CC(=S)Nc1ccccc1 [Thioacetanilide] | activated | – | – | – |

| Molecule | Approx. Threshold [1] [µM] | EC50 ([1]; read-out: EC50) [µM] | receptor activation (in words) [1] | Threshold ([2]; hTAS2R16) | Threshold Value Human [5] [mM] | also measured |
| --- | --- | --- | --- | --- | --- | --- |
| S=C1NCCN1 [2-Imidazolidinethione] | 10 | – | activated | – | – | – |
| NC(=S)Nc1ccccc1 [Phenylthiocarbamid] | 0.3 | – | activated | – | – | EC50 [1]: 2 µM |
| N,N-dimethylthioformamide [N,N-Dimethyl- thioformamide] | 10 | 55 | activated | – | – | – |
| N-Methylthiourea | 100 | 600 to 800 | activated | – | – | – |
| Thioacetamide | 100 | – | activated | – | – | – |
